Source: PubChem BioAssay (NCI)
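Compound exposure: 48 hours, 5 concentrations, 96-well plates. GI50 marks 50% less growth. TGI: total growth inhibition.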

What was measured:
Assay in all cases: inhibition of tumour cell growth, NCI panel, 48 h
CAKI-1 renal = tested on: CAKI-1 renal
HOP-92 NSCLC = tested on: HOP-92 NSCLC
NCI-H226 lung = tested on: NCI-H226 lung
COLO 205 colon = tested on: COLO 205 colon
SK-MEL-28 melanoma = tested on: SK-MEL-28 melanoma
HT29 colon = tested on: HT29 colon
MCF7 breast = tested on: MCF7 breast
HCT-15 colon = tested on: HCT-15 colon
EKVX NSCLC = tested on: EKVX NSCLC
SK-OV-3 ovarian = tested on: SK-OV-3 ovarian
UACC-62 melanoma = tested on: UACC-62 melanoma
HL-60(TB) leukemia = tested on: HL-60(TB) leukemia
TK-10 renal = tested on: TK-10 renal
SF-539 CNS = tested on: SF-539 CNS
OVCAR-8 ovarian = tested on: OVCAR-8 ovarian
U251 CNS = tested on: U251 CNS
IGROV1 ovarian = tested on: IGROV1 ovarian
PC-3 prostate = tested on: PC-3 prostate
RXF 393 renal = tested on: RXF 393 renal
SF-268 CNS = tested on: SF-268 CNS
RPMI-8226 leukemia = tested on: RPMI-8226 leukemia
MDA-MB-231 breast = tested on: MDA-MB-231 breast
MOLT-4 leukemia = tested on: MOLT-4 leukemia
SW-620 colon = tested on: SW-620 colon
SNB-75 CNS = tested on: SNB-75 CNS
OVCAR-3 ovarian = tested on: OVCAR-3 ovarian
ACHN renal = tested on: ACHN renal
SK-MEL-2 melanoma = tested on: SK-MEL-2 melanoma
786-0 renal = tested on: 786-0 renal
BT-549 breast = tested on: BT-549 breast
OVCAR-5 ovarian = tested on: OVCAR-5 ovarian
LOX IMVI melanoma = tested on: LOX IMVI melanoma
UO-31 renal = tested on: UO-31 renal
NCI-H23 lung = tested on: NCI-H23 lung
UACC-257 melanoma = tested on: UACC-257 melanoma
K-562 leukemia = tested on: K-562 leukemia
DU-145 prostate = tested on: DU-145 prostate
T-47D breast = tested on: T-47D breast
MDA-MB-435 = tested on: MDA-MB-435
SNB-19 CNS = tested on: SNB-19 CNS
SK-MEL-5 melanoma = tested on: SK-MEL-5 melanoma
SN12C renal = tested on: SN12C renal
HCC-2998 colon = tested on: HCC-2998 colon
HS 578T breast = tested on: HS 578T breast
SF-295 CNS = tested on: SF-295 CNS
HCT-116 colon = tested on: HCT-116 colon
A549 NSCLC = tested on: A549 NSCLC
CCRF-CEM leukemia = tested on: CCRF-CEM leukemia
MALME-3M melanoma = tested on: MALME-3M melanoma
NCI-H522 lung = tested on: NCI-H522 lung
NCI-H460 lung = tested on: NCI-H460 lung
OVCAR-4 ovarian = tested on: OVCAR-4 ovarian
NCI/ADR-RES ovarian = tested on: NCI/ADR-RES ovarian
HOP-62 NSCLC = tested on: HOP-62 NSCLC
KM12 colon = tested on: KM12 colon

`CSc1ccc(C2=NN(C(C)=O)C(c3ccc(-c4cc(Cl)c(Cl)cc4Cl)o3)C2)cc1` (stereo not given) showed a GI50 (CAKI-1 renal) of 19.2 µM, a TGI (CAKI-1 renal) of 43.2 µM and a GI50 (HOP-92 NSCLC) of 11.2 µM. For the same compound, the TGI (HOP-92 NSCLC) was 23.6 µM, the GI50 (NCI-H226 lung) was 13.9 µM and the TGI (NCI-H226 lung) was 27.3 µM. It also gave a GI50 (COLO 205 colon) of 16.8 µM, a TGI (COLO 205 colon) of 32.1 µM and a GI50 (SK-MEL-28 melanoma) of 16.2 µM. For the same compound, the TGI (SK-MEL-28 melanoma) was 29.7 µM, the GI50 (HT29 colon) was 12.9 µM and the TGI (HT29 colon) was 26.7 µM. For the same compound, the GI50 (MCF7 breast) was 12.5 µM, the TGI (MCF7 breast) was 26.5 µM and the GI50 (HCT-15 colon) was 14.8 µM. For the same compound, the TGI (HCT-15 colon) was 28 µM, the GI50 (EKVX NSCLC) was 14.9 µM and the TGI (EKVX NSCLC) was 30.6 µM. For the same compound, the GI50 (SK-OV-3 ovarian) was 16.7 µM, the TGI (SK-OV-3 ovarian) was 38.8 µM and the GI50 (UACC-62 melanoma) was 10.2 µM. The TGI (UACC-62 melanoma) was 21.8 µM, the GI50 (HL-60(TB) leukemia) was 12 µM and the TGI (HL-60(TB) leukemia) was 30.4 µM. For the same compound, the GI50 (TK-10 renal) was 24.8 µM, the TGI (TK-10 renal) was 50.3 µM and the GI50 (SF-539 CNS) was 15.8 µM. For the same compound, the TGI (SF-539 CNS) was 29.5 µM, the GI50 (OVCAR-8 ovarian) was 16.9 µM and the TGI (OVCAR-8 ovarian) was 36.9 µM. It also gave a GI50 (U251 CNS) of 16.9 µM, a TGI (U251 CNS) of 30.6 µM and a GI50 (IGROV1 ovarian) of 9.99 µM. For the same compound, the TGI (IGROV1 ovarian) was 24.9 µM, the GI50 (PC-3 prostate) was 11.2 µM and the TGI (PC-3 prostate) was 30.7 µM. For the same compound, the GI50 (RXF 393 renal) was 17.6 µM, the TGI (RXF 393 renal) was 35.1 µM and the GI50 (SF-268 CNS) was 16.3 µM. The TGI (SF-268 CNS) was 32.2 µM, the GI50 (RPMI-8226 leukemia) was 10.9 µM and the TGI (RPMI-8226 leukemia) was 41 µM. The GI50 (MDA-MB-231 breast) was 11.3 µM, the TGI (MDA-MB-231 breast) was 23.3 µM and the GI50 (MOLT-4 leukemia) was 12.1 µM. For the same compound, the TGI (MOLT-4 leukemia) was 35.3 µM, the GI50 (SW-620 colon) was 18.5 µM and the TGI (SW-620 colon) was 33.2 µM. For the same compound, the GI50 (SNB-75 CNS) was 18.7 µM, the TGI (SNB-75 CNS) was 43.2 µM and the GI50 (OVCAR-3 ovarian) was 15.3 µM. For the same compound, the TGI (OVCAR-3 ovarian) was 37.8 µM, the GI50 (ACHN renal) was 15.8 µM and the TGI (ACHN renal) was 29.9 µM. It also gave a GI50 (SK-MEL-2 melanoma) of 16.8 µM, a TGI (SK-MEL-2 melanoma) of 35.1 µM and a GI50 (786-0 renal) of 18.9 µM. For the same compound, the TGI (786-0 renal) was 32.9 µM, the GI50 (BT-549 breast) was 16.6 µM and the TGI (BT-549 breast) was 30.8 µM. For the same compound, the GI50 (OVCAR-5 ovarian) was 14.3 µM, the TGI (OVCAR-5 ovarian) was 27.4 µM and the GI50 (LOX IMVI melanoma) was 15.4 µM. It also gave a TGI (LOX IMVI melanoma) of 28.7 µM, a GI50 (UO-31 renal) of 12.4 µM and a TGI (UO-31 renal) of 25.4 µM. It also gave a GI50 (NCI-H23 lung) of 15.4 µM, a TGI (NCI-H23 lung) of 29.6 µM and a GI50 (UACC-257 melanoma) of 22.8 µM. For the same compound, the TGI (UACC-257 melanoma) was 42.7 µM, the GI50 (K-562 leukemia) was 14.8 µM and the TGI (K-562 leukemia) was 34.2 µM. For the same compound, the GI50 (DU-145 prostate) was 15.5 µM, the TGI (DU-145 prostate) was 29 µM and the GI50 (T-47D breast) was 11.9 µM. It also gave a TGI (T-47D breast) of 37.2 µM, a GI50 (MDA-MB-435) of 15.5 µM and a TGI (MDA-MB-435) of 36.4 µM. For the same compound, the GI50 (SNB-19 CNS) was 17.9 µM, the TGI (SNB-19 CNS) was 32.3 µM and the GI50 (SK-MEL-5 melanoma) was 12.6 µM. The TGI (SK-MEL-5 melanoma) was 25.1 µM, the GI50 (SN12C renal) was 14.5 µM and the TGI (SN12C renal) was 27.6 µM. For the same compound, the GI50 (HCC-2998 colon) was 15.8 µM, the TGI (HCC-2998 colon) was 29.6 µM and the GI50 (HS 578T breast) was 22.8 µM. The TGI (HS 578T breast) was 53 µM, the GI50 (SF-295 CNS) was 18.3 µM and the TGI (SF-295 CNS) was 45.5 µM. For the same compound, the GI50 (HCT-116 colon) was 10.3 µM, the TGI (HCT-116 colon) was 21.9 µM and the GI50 (A549 NSCLC) was 17 µM. It also gave a TGI (A549 NSCLC) of 33 µM, a GI50 (CCRF-CEM leukemia) of 21.5 µM and a TGI (CCRF-CEM leukemia) of 47 µM. It also gave a GI50 (MALME-3M melanoma) of 19.5 µM, a TGI (MALME-3M melanoma) of 39.9 µM and a GI50 (NCI-H522 lung) of 13.2 µM. It also gave a TGI (NCI-H522 lung) of 29.7 µM, a GI50 (NCI-H460 lung) of 17.2 µM and a TGI (NCI-H460 lung) of 32.2 µM. It also gave a GI50 (OVCAR-4 ovarian) of 13.4 µM, a TGI (OVCAR-4 ovarian) of 26.8 µM and a GI50 (NCI/ADR-RES ovarian) of 16.7 µM. The TGI (NCI/ADR-RES ovarian) was 34.1 µM, the GI50 (HOP-62 NSCLC) was 15.8 µM and the TGI (HOP-62 NSCLC) was 29.4 µM. For the same compound, the GI50 (KM12 colon) was 16.9 µM and the TGI (KM12 colon) was 35.7 µM.
